Test results published in ChEMBL document CHEMBL1201862, “PubChem BioAssay data set” (2004).
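Compound exposure: 48 hours, 5 concentrations, 96-well plates. GI50 marks 50% less growth.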 Active and inactive are the calls of the source. Rule as the data show it: active = GI50 up to about 1.1 µM and inactive = higher.

Assays:
Assay in all cases: inhibition of tumour cell growth, NCI panel, 48 h
[1] = system: ACHN
[2] = system: CAKI-1
[3] = system: HCT-15
[4] = system: HT-29
[5] = system: IGROV-1
[6] = system: KM12
[7] = system: MCF7
[8] = system: MDA-N
[9] = system: MOLT-4
[10] = system: Malme-3M
[11] = system: NCI/ADR-RES
[12] = system: OVCAR-3
[13] = system: RXF 393
[14] = system: SF-295
[15] = system: SK-MEL-5
[16] = system: TK-10
[17] = system: U-251
[18] = system: UACC-257
[19] = system: SF-539
[20] = system: SNB-75

| Structure (SMILES) | GI50 [1] | GI50 [2] | GI50 [3] [µM] | GI50 [4] | GI50 [5] | GI50 [6] | GI50 [7] | GI50 [8] | GI50 [9] | GI50 [10] | GI50 [11] | GI50 [12] | GI50 [13] | GI50 [14] | GI50 [15] | GI50 [16] | GI50 [17] | GI50 [18] | GI50 [19] | GI50 [20] |
| --- | --- | --- | --- | --- | --- | --- | --- | --- | --- | --- | --- | --- | --- | --- | --- | --- | --- | --- | --- | --- |
| C[N+](C)(C)CCCSc1nc2ccccc2[nH]1 | > 100 µM (inactive) | > 100 µM (inactive) | > 100 | > 100 µM (inactive) | > 100 µM (inactive) | > 100 µM (inactive) | > 100 µM (inactive) | > 100 µM (inactive) | > 100 µM (inactive) | > 100 µM (inactive) | > 100 µM (inactive) | > 100 µM (inactive) | > 100 µM (inactive) | > 100 µM (inactive) | > 100 µM (inactive) | > 100 µM (inactive) | > 100 µM (inactive) | 30.1 µM (inactive) | – | – |
| CCNC1=C(NC(=O)c2ccc(F)cc2)C(=O)c2ccccc2C1=O | > 100 µM (inactive) | – | 30.5 | 22.2 µM (inactive) | 31.6 µM (inactive) | 49.9 µM (inactive) | 30.3 µM (inactive) | 33.6 µM (inactive) | 30.1 µM (inactive) | 19.2 µM (inactive) | 27.3 µM (inactive) | 36.6 µM (inactive) | 29.4 µM (inactive) | 52.6 µM (inactive) | 35 µM (inactive) | > 100 µM (inactive) | – | 15.8 µM (inactive) | 72.1 µM (inactive) | 62.2 µM (inactive) |
| O=C(OC1C2OC(=O)c3cc(O)c(O)c(O)c3Oc3cc4c(c(O)c3O)-c3c(cc(O)c(O)c3O)C(=O)OCC3OC(O)C(OC(=O)c5cc(O)c(O)c(O)c5Oc5cc6c(c(O)c5O)-c5c(cc(O)c(O)c5O)C(=O)OC1C(COC6=O)OC2O)C(OC(=O)c1cc(O)c(O)c(O)c1)C3OC4=O)c1cc(O)c(O)c(O)c1 (stereo not drawn) | 38.9 µM (inactive) | 38.3 µM (inactive) | – | 17.9 µM (inactive) | 40.2 µM (inactive) | 3.36 µM (inactive) | 50.7 µM (inactive) | 21.2 µM (inactive) | 3.46 µM (inactive) | > 100 µM (inactive) | 58.2 µM (inactive) | 25.8 µM (inactive) | 21.9 µM (inactive) | 14.7 µM (inactive) | 53.8 µM (inactive) | 38.7 µM (inactive) | – | 81.5 µM (inactive) | 24.4 µM (inactive) | – |
| C[C@@]1(O)C2C3CC4C5C3C1[C@](O)(C42)[C@H]5Br (stereo partly drawn) | > 100 µM (inactive) | > 100 µM (inactive) | > 100 | > 100 µM (inactive) | > 100 µM (inactive) | > 100 µM (inactive) | > 100 µM (inactive) | > 100 µM (inactive) | > 100 µM (inactive) | – | > 100 µM (inactive) | > 100 µM (inactive) | > 100 µM (inactive) | > 100 µM (inactive) | > 100 µM (inactive) | > 100 µM (inactive) | > 100 µM (inactive) | > 100 µM (inactive) | > 100 µM (inactive) | – |
| COC(=O)C1=Nc2c(C)nn(-c3ccccc3)c2N=C(c2ccc(C)cc2)C1 | > 10 µM (inactive) | > 10 µM (inactive) | > 10 | > 10 µM (inactive) | > 10 µM (inactive) | > 10 µM (inactive) | > 10 µM (inactive) | > 10 µM (inactive) | > 10 µM (inactive) | > 10 µM (inactive) | > 10 µM (inactive) | > 10 µM (inactive) | – | > 10 µM (inactive) | > 10 µM (inactive) | > 10 µM (inactive) | > 10 µM (inactive) | > 10 µM (inactive) | > 10 µM (inactive) | > 10 µM (inactive) |
| CN1c2ccccc2S(=O)(=O)n2c(COc3ccc(Cl)cc3)nnc21 | > 100 µM (inactive) | 85.7 µM (inactive) | > 100 | > 100 µM (inactive) | > 100 µM (inactive) | > 100 µM (inactive) | > 100 µM (inactive) | > 100 µM (inactive) | > 100 µM (inactive) | – | > 100 µM (inactive) | > 100 µM (inactive) | 55.1 µM (inactive) | 27 µM (inactive) | > 100 µM (inactive) | > 100 µM (inactive) | 44 µM (inactive) | > 100 µM (inactive) | 35.5 µM (inactive) | – |
| CCOC(=O)C(NC(=O)NC(C(=O)OCC)C(=O)OCC)C(=O)OCC | > 100 µM (inactive) | > 100 µM (inactive) | > 100 | > 100 µM (inactive) | > 100 µM (inactive) | – | > 100 µM (inactive) | > 100 µM (inactive) | > 100 µM (inactive) | > 100 µM (inactive) | > 100 µM (inactive) | > 100 µM (inactive) | > 100 µM (inactive) | 49.9 µM (inactive) | > 100 µM (inactive) | > 100 µM (inactive) | > 100 µM (inactive) | > 10 µM (inactive) | > 100 µM (inactive) | – |
| CC1CNc2ccccc2N=C1NN (stereo not drawn) | > 100 µM (inactive) | > 100 µM (inactive) | > 100 | > 100 µM (inactive) | > 100 µM (inactive) | > 100 µM (inactive) | > 100 µM (inactive) | > 100 µM (inactive) | – | > 100 µM (inactive) | > 100 µM (inactive) | > 100 µM (inactive) | > 100 µM (inactive) | > 100 µM (inactive) | > 100 µM (inactive) | > 100 µM (inactive) | > 100 µM (inactive) | > 100 µM (inactive) | > 100 µM (inactive) | – |
| O=c1c2c3c(sc2nc(S)n1-c1ccccc1)CCCc1ccc([N+](=O)[O-])cc1-3 | 81.3 µM (inactive) | > 100 µM (inactive) | 22 | 25.3 µM (inactive) | 14.2 µM (inactive) | > 100 µM (inactive) | 36.6 µM (inactive) | 86.5 µM (inactive) | 21.3 µM (inactive) | 35.7 µM (inactive) | 25.8 µM (inactive) | 32.1 µM (inactive) | 16.9 µM (inactive) | 30.4 µM (inactive) | 25.7 µM (inactive) | > 100 µM (inactive) | 39.8 µM (inactive) | 29.2 µM (inactive) | – | – |
| COc1ccc(NC(=O)/C(=N/NC(N)=S)C2C(=O)NC(=S)NC2=O)c(OC)c1 | > 100 µM (inactive) | > 100 µM (inactive) | > 100 | > 100 µM (inactive) | > 100 µM (inactive) | > 100 µM (inactive) | > 100 µM (inactive) | > 100 µM (inactive) | > 100 µM (inactive) | > 100 µM (inactive) | > 100 µM (inactive) | > 100 µM (inactive) | – | > 100 µM (inactive) | > 100 µM (inactive) | > 100 µM (inactive) | > 100 µM (inactive) | > 100 µM (inactive) | > 100 µM (inactive) | > 100 µM (inactive) |
| N#Cc1ccc(-c2nc3c(N)ncnc3o2)cc1 | 75 µM (inactive) | > 100 µM (inactive) | > 100 | > 100 µM (inactive) | > 100 µM (inactive) | > 100 µM (inactive) | > 100 µM (inactive) | > 100 µM (inactive) | > 100 µM (inactive) | – | > 100 µM (inactive) | > 100 µM (inactive) | > 100 µM (inactive) | > 100 µM (inactive) | > 100 µM (inactive) | > 100 µM (inactive) | – | > 100 µM (inactive) | > 100 µM (inactive) | – |
